Results reported in publication PMC7193943 (European journal of medicinal chemistry, 2019).

Tests used:
[1] = test system: P-glycoprotein efflux transporter; conditions: Caco-2 colorectal adenocarcinoma cells; cited from earlier work
[2] = mice, 24 h after oral administration; cited from earlier work
[3] = test system: H2228 cells
[4] = Solubility in aqueous media; assay type: physicochemical
[5] = test system: H441 cells; assay: Cytotoxicity assay; assay type: cell-based, human; conditions: 72 h
[6] = test system: ALK-positive H2228 and ALK-negative H441 cells; assay: Live cell tracer uptake assay; assay type: cell-based, human; conditions: after 30 min of incubation

CCc1cc2c(cc1N1CCC(N3CCOCC3)CC1)C(C)(C)c1[nH]c3cc(C#N)ccc3c1C2=O [Alectinib, 9-Ethyl-6,6-dimethyl-8-[4-(morpholin-4-yl)piperidin-1-yl]-11-oxo-6,11-dihydro-5H-benzo[b]carbazole-3-carbonitrile]
transport by the P-glycoprotein efflux transporter [1]: not transported

Cc1cc(Nc2ncc(Cl)c(Nc3ccccc3S(=O)(=O)C(C)C)n2)c(OC(C)C)cc1C1CCNCC1 [Ceritinib, 5-Chloro-N2-(2-isopropoxy-5-methyl-4-(piperidin-4-yl)phenyl)-N4-(2-(isopropylsulfonyl)phenyl)pyrimidine-2,4-diamine, reference compound]
drug found in the brain [2]: 0.4%
IC50 [3]: 2900 nM

C[C@@H](Oc1cc(-c2cnn(C3CCN(CCF)CC3)c2)cnc1N)c1c(Cl)ccc(F)c1Cl [Compound 1, 3-((R)-1-(2,6-dichloro-3-fluorophenyl)ethoxy)-5-(1-(fluoroethylpiperidin-4-yl)-1H-pyrazol-4-yl)pyridin-2-amine]
solubility in saline or PBS solutions [4]: not soluble
fold loss of potency versus parent drug [3]: less than 3 fold

CCc1cc2c(cc1N1CCC(N3CCOCC3)CC1)C(C)(C)c1c(c3ccc(C#N)cc3n1CCF)C2=O [Compound 4, 9-Ethyl-6,6-dimethyl-8-[4-(morpholin-4-yl)piperidin-1-yl]-11-oxo-6,11-dihydro-5(2-fluoroethyl)-benzo[b]carbazole-3-carbonitrile]
effect on ALK-negative H441 cells (cytotoxicity) [5]: no substantial effect
solubility in saline or PBS solutions [4]: not soluble

Cc1cc(Nc2ncc(Cl)c(Nc3ccccc3S(=O)(=O)C(C)C)n2)c(OC(C)C)cc1C1CCN(CCF)CC1 [Compound 9, 5-Chloro-N2–(2-isoprpoxy-5-methyl-4-(1-fluoroethylpiperidin-4-yl)phenyl)-N4-[2-(propane-2-sulfonyl)phenyl]pyrimidine-2,4-diamine]
solubility in saline or PBS solutions [4]: not soluble
fold loss of potency versus parent drug [3]: ~10 fold

Cc1cc(Nc2ncc(Cl)c(Nc3ccccc3S(=O)(=O)C(C)C)n2)c(OC(C)C)cc1C1CCN(CCF)CC1 [[^18F]9]
solubility in water or saline ([4]; water or saline): insoluble
cell-associated radioactivity, H2228 vs H441 [6]: higher uptake in the ALK-positive H2228 cells
